Key:
Ube3am-/p+ (AS) mice = test: audiogenic seizure susceptibility in Angelman syndrome mice; assay type: in vivo, mouse; conditions: for mice experiencing seizures: baseline 100%
Experimental: Heterozygous mice with maternal deficiency of Ube3A (Ube3am−/p+) and wild type (Ube3am+/p+) were purchased from The Jackson Laboratory (Jackson code: B6.12957-Ube3a tm1Alb/J) and maintained in a C57BL/6 background.
For the audiogenic seizure tests CBDV was administered at 20, 200 and 400 mg/kg.
Seizure susceptibility: Audiogenic seizures were induced by vigorously scraping scissors across the metal grating of the cage lid which produces a 100 DB high frequency loud noise. This was done for 20 seconds. This test consists of 3 phases. In phase 1 all mice were tested for epilepsy. In phase 2 all mice were injected daily with either vehicle or a drug for 7 or 10 days. In phase 3 mice were tested for epilepsy (one hour after last injection).

VPA-exposed rats = test: locomotor activity and repetitive behaviours, prenatal VPA model; assay type: in vivo, rat
Experimental: Pregnant Sprague-Dawley rats (Charles River, Calco, Italy), received a single intraperitoneal injection of 500 mg/kg sodium valproate on the 12.5 day after conception, and control females were injected with physiological saline at the same time. Sodium valproate (Sigma Aldrich, Milan, IT) was dissolved in saline at a concentration of 250 mg/ml.
CBDV was dissolved in ethanol, cremophor and saline (1:1:18). Symptomatic treatment with CBDV at doses of 0.2, 2, 20, and 100 mg/kg/day i.p. was performed starting from PND 34 (early adolescence) till 56 (early adulthood), both in male and female offspring of dams injected with VPA 500 mg/kg (or vehicle) on day 12.5 after conception. At PND 56, a series of behavioural tests was performed in order to assess the effect of chronic CBDV on sociability, social novelty, short-term memory, locomotion and stereotyped/repetitive behaviours.
Locomotor activity and repetitive behaviours: Locomotor activity was recorded in an activity cage for 20 minutes with the aid of Anymaze program (Ugo Basile, Italy). In this period, repetitive behaviours (self-grooming and digging) were measured by an observer blind to the treatment group.

[1] = system: neuroinflammatory markers (GFAP, CD11b, TNF-α); test: neuroinflammation studies, hippocampus, Western blotting, prenatal VPA model; assay type: in vivo, rat
Experimental: At the end of the study, on PND 59, male rats treated with CBDV 20 mg/kg i.p. were sacrificed and the hippocampus was collected 24 hours after the last CBDV injection and stored at −80° C. for evaluation of changes in protein expression of components of the endocannabinoid system (CB1 and CB2 receptors, the endocannabinoid degrading enzymes, FAAH and MAGL and the synthetic enzymes, DAGLα and NAPE-PLD); neuroinflammatory markers (GFAP (astrocytic marker), Iba1 (microglial marker), CD11 b (activated microglial marker), TNF-α (proinflammatory cytokine) and iNOS (inflammatory mediator)); synaptic markers (Synaptophysin (synaptic vesicle protein), PSD-95 (post synaptic density protein) and the neurotrophins, BDNF and IGF by Western blotting.

MeCP2 KO mice = test: survival of MeCP2 KO and WT mice; assay type: in vivo, mouse; conditions: for survival rate: vehicle 25%
Experimental: CBDV was administered daily at the dose of 2, 20 and 200 mg/kg i.p. starting from PND 28 and the following signs were scored every other day: hindlimb clasping (indication of motor imbalance), tremor, gait (measure of coordination), breathing, mobility and general condition.
The CBDV was dissolved in ethanol, cremophor and saline (1:1:18).
Starting from PND 28, mice received a daily intraperitoneal injection of CBDV (or vehicle) at the dose of 2, 20 and 200 mg/kg. Animals were then scored every other day to evaluate the effect of CBDV treatment on motor symptoms (hindlimb clasping, gait, mobility) as well as neurological signs and general conditions (breathing abnormalities, tremors and general condition) present in MeCP2 knockout (KO) mice.

C=C(C)[C@@H]1CCC(C)=C[C@H]1c1c(O)cc(CCC)cc1O [CBDV, Cannabidivarin]
seizure susceptibility (Ube3am-/p+ (AS) mice; AS mice, 20 mg/kg or 200 mg/kg, 7 or 10 days treatment): no effect
number of mice with seizures (Ube3am-/p+ (AS) mice; AS mice, 400 mg/kg): statistically significant decrease
mice experiencing seizures (Ube3am-/p+ (AS) mice; AS mice, 400 mg/kg, after 7 days treatment): 60%
mice experiencing seizures (Ube3am-/p+ (AS) mice; AS mice, 400 mg/kg, after 10 days treatment): 30%
reduction of seizure susceptibility (Ube3am-/p+ (AS) mice; Angelman mice, 400 mg/kg, after 10 days treatment): 70%
time spent in compulsive self-grooming (VPA-exposed rats; females, 2 and 100 mg/kg): significantly normalize
time spent in compulsive self-grooming (VPA-exposed rats; males, 20 mg/kg): significantly normalize
locomotion increased by VPA (VPA-exposed rats; males, 2, 20 and 100 mg/kg): normalize
expression of increased inflammatory markers (GFAP, CD11b, TNFα) in hippocampus ([1]; VPA-exposed male rats, chronic CBDV 20 mg/kg i.p.): completely normalised
expression of inflammatory markers in hippocampus ([1]; control rats, chronic CBDV): no effect
survival rate (MeCP2 KO mice; MeCP2 KO mice, 2 mg/kg): 62.5%
survival rate (MeCP2 KO mice; MeCP2 KO mice, 20 mg/kg): 62.5%
survival rate (MeCP2 KO mice; MeCP2 KO mice, 200 mg/kg): 75%
survival measured at PND 67 (MeCP2 KO mice; MeCP2 KO mice, all three doses (2, 20, 200 mg/kg)): increase survival
lethality (MeCP2 KO mice; WT mice treated with CBDV): No lethality
